# Measurements published in patent publication US20250186540A1, “VIPR2 ANTAGONIST PEPTIDE FOR SUPPRESSING CANCER METASTASIS” (ICHIMARU PHARCOS CO., LTD., priority 2022, published 2025).
# Positions of bridges follow the written chain, without caps; N, C: chain ends.
# Assays:
# [1] = system: phosphorylation of AKT in MCF-7 cells; test: Phosphorylation of AKT on VIP stimulation (Western blotting); format: cell-based; settings: MCF-7 cells starved 3 hours, 0 nM to 1000 nM VIP for 10 minutes
# Description: (§1) Western blotting was performed according to a previously described method (Asano et al. 2014, Biol. Open3, 463-474; Asano et al. 2019, Sci. Rep. 9, 12729).
# To investigate whether VIP is involved in cell movement via the PI3K/PI(3,4,5)P3 pathway, phosphorylation of AKT, a downstream signal of the PI3K/PI(3,4,5)P3 pathway in cancer cells, was assessed by Western blotting. […] All experiments were independently performed at least three times, and similar data were obtained.
# [2] = system: MDA-MB-231 cells stably expressing EGFP or VIPR2-EGFP; test: Transwell chamber assay of VIP-induced movement; format: cell-based; settings: 200 nM VIP; 30 hours
# Description: (§2) In addition, the measurement was performed according to the method described above (Asano et al. 2012, Mol. Cell Biol. 32, 3242-3252) using a Boyden chamber. To each well, 600 μL of a serum-free culture solution containing 200 nM VIP was added. Cells (1×10^4 cells) were suspended in 100 μL of a serum-free culture solution and added to the insert. The cells were allowed to migrate for 30 or 48 hours at 37° C. Non-mobile cells adhering to the upper surface of the membrane were removed, and mobile cells adhering to the lower surface were fixed with 4% paraformaldehyde and counted with a fluorescence microscope.
# Cells were suspended in serum-free media (1×10^4 cells/[…]). A serum-free medium 6 containing 200 nM VIP was added to each well in an amount of 600 μL, and an insert 3 having 3 μm pores 5 was immersed in the well. […] After 30 hours, cells were fixed, cells on the surface of the insert 3 were removed, and then fluorescence of EGFP of cells 2 that had moved to the rear surface in response to VIP was detected with a fluorescence microscope. The number of the cells that had moved to the rear surface of the insert was graphed based on the fluorescence image. […] VIP (200 nM) was added to the well, the cells were added to the insert and incubated at 37° C. for 30 hours, and cells that had moved to the rear side of the insert were quantified and shown graphically.
# [3] = system: MDA-MB-231 cells stably expressing EGFP or VIPR2-EGFP; test: WAVE2-rich lamellipodia area after VIP stimulation; format: cell-based; settings: 100 nM VIP; 30 minutes
# Description: MDA-MB-231 cells (2×10^5 cells) stably expressing EGFP or VIPR2-EGFP were seeded on collagen-coated cover glass and incubated under conditions of 37° C. and 5% CO2. After 24 hours, the cells were washed with serum-free medium, and fresh serum-free medium was added to incubate the cells (under conditions of 37° C. and 5% CO2). After 3 hours, the medium was replaced with serum-free medium containing 100 nM VIP, and incubation for 30 minutes was performed. The cells were fixed with 4% paraformaldehyde, and immunostained using an anti-WAVE2 antibody. The surface area of a WAVE2-rich region immediately below the cell membrane was measured from a fluorescently-stained image of the same and graphed.
# Data are shown as mean±SD. **: p<0.01, ***: p<0.001, between indicated groups (Kruskal-Wallis test and Dunn's multiple comparison test). “n.s.” indicates not statistically significant. […] The MDA-MB-231 cells stably expressing VIPR2-EGFP had more pronounced area expansion of lamellipodia compared to the control MDA-MB-231 cells expressing EGFP.
# [4] = system: phosphorylation of AKT in MDA-MB-231 cells stably expressing VIPR2-EGFP; test: Phosphorylation of AKT by VIP in the presence and absence of KS-133 (Western blotting); format: cell-based
# Description: as §1
# Pathway by VIP in MDA-MB-231 Cells Stably Expressing VIPR2-EGFP>Phosphorylation of AKT by VIP in MDA-MB-231 cells stably expressing VIPR2-EGFP was evaluated in the presence and absence of KS-133.
# [5] = system: MDA-MB-231 breast cancer cells stably expressing VIPR2-EGFP; test: Transwell migration test with KS-133; format: cell-based
# Description: as §2
# Using the transwell shown in FIG. 7, the effect of KS-133 on migration of MDA-MB-231 breast cancer cells stably expressing VIPR2-EGFP was examined. MDA-MB-231 cells stably expressing VIPR2-EGFP were suspended in serum-free medium containing KS-133 at each of the concentrations of 0 nM to 1000 nM (1×10^4 cells/100 μL). A serum-free medium 6 containing 200 nM VIP and KS-133 at each of the concentrations was added to each well in an amount of 600 μL, and an insert 3 having 3 μm pores 5 was immersed in the well. Then, the suspended cells 1 were added to the insert 3, and incubated under conditions of 37° C. and 5% CO2. After 48 hours, the cells were fixed, cells on the surface of the insert 3 were removed, and then fluorescence of EGFP of cells 2 that had moved to the rear surface in response to induction by VIP was detected with a fluorescence microscope. The number of the cells that had moved to the rear surface of the insert was graphed based on the fluorescence image.
# FIG. 8A is a fluorescence micrograph showing migrated cells. FIG. 8B and Table 2 show the number of migrated cells when each concentration of KS-133 was added.
# [6] = system: MCF-7 cells overexpressing VIPR2-EGFP; test: Cell proliferation test with KS-133; format: cell-based; settings: for Number of cells (mean value): 100 nM KS-133, 100 nM VIP, 2% FBS
# Description: This effect was confirmed. The cell proliferation test was performed according to NON-PATENT DOCUMENT 3. MCF-7 cells overexpressing VIPR2-EGFP were seeded in a 35 mm culture dish at a density of 1×10^5 cells/dish for 6 hours, and the culture medium was replaced with a fresh medium containing 2% FBS, 100 nM VIP, and 0 nM or 100 nM KS-133 (day 0). Cells were observed under a BZ-X800 fluorescence microscope (Keyence, Kyoto, Japan) and the number of cells was counted every 24 hours for up to 4 days by trypan blue dye staining using a hemacytometer (timecourse experiment).
# [7] = system: psychiatric disease model mice; settings: NON-PATENT DOCUMENT 2; cited from earlier work
Substance,phosphorylation of AKT [1],number of cells that had moved to the back side of the insert [2],WAVE2-rich area of lamellipodia [3],expression of AKT [4],phosphorylation of AKT induced by VIP ([4]; presence vs absence of KS-133),"VIP-induced cell migration ([5]; 200 nM VIP, KS-133 0 nM to 1000 nM, 48 hours)","Mean cell count (migrated cells) ([5]; KS-133 30 nM, 200 nM VIP, 48 hours) [Cells/mm^2]","Mean cell count (migrated cells) ([5]; KS-133 100 nM, 200 nM VIP, 48 hours) [Cells/mm^2]","Mean cell count (migrated cells) ([5]; KS-133 300 nM, 200 nM VIP, 48 hours) [Cells/mm^2]","Mean cell count (migrated cells) ([5]; KS-133 1000 nM, 200 nM VIP, 48 hours) [Cells/mm^2]",KS-133 concentration showing a significant difference in migration compared to the absence of KS-133 ([5]; Kruskal-Wallis test and Dunn's multiple comparison test) [nM],Number of cells (mean value) ([6]; Day 0),Number of cells (mean value) ([6]; Day 1),Number of cells (mean value) ([6]; Day 2),Number of cells (mean value) ([6]; Day 3),Number of cells (mean value) ([6]; Day 4),"cell proliferation ([6]; MCF-7 cells overexpressing VIPR2, addition of KS-133)",cognitive decline [7]
Vasoactive intestinal peptide [VIP],phosphorylated in a VIP addition concentration-dependent manner,increased,expanded the WAVE2-rich area of lamellipodia,–,–,–,–,–,–,–,–,–,–,–,–,–,–,–
Ac-c[Cys^1-Pro^2-Pro^3-Tyr^4-Leu^5-Pro^6-c(Lys^7-Tyr^8-Leu^9-Cys^10]-Asp^11)-Leu^12-Ile^13-NH2 (Ac-CPPYLPKYLCDLI-NH2; disulfide 1-10; lactam 7-11; SMILES CC[C@H](C)[C@H](NC(=O)[C@H](CC(C)C)NC(=O)[C@@H]1CC(=O)NCCCC[C@@H]2NC(=O)[C@@H]3CCCN3C(=O)[C@H](CC(C)C)NC(=O)[C@H](Cc3ccc(O)cc3)NC(=O)[C@@H]3CCCN3C(=O)[C@@H]3CCCN3C(=O)[C@@H](NC(C)=O)CSSC[C@H](NC(=O)[C@H](CC(C)C)NC(=O)[C@H](Cc3ccc(O)cc3)NC2=O)C(=O)N1)C(N)=O) [KS-133],–,–,–,did not affect the expression of AKT,strongly suppressed phosphorylation of AKT induced by VIP in an addition concentration-dependent manner,suppressed,4.35,2.08,1.39,0.78,≥ 100,1.0 × 10^5,0.85 × 10^5,0.65 × 10^5,0.45 × 10^5,0.2 × 10^5,significantly suppressed from Day 2 of culture or later,suppress cognitive decline
